Source: patent publication US12344626B2, “Pharmaceutical compounds and therapeutic methods” (RUTGERS, THE STATE UNIVERSITY OF NEW JERSEY, priority 2019, dated 2025)
Entries after “also recorded” stand apart in the source; their conditions may differ.

Tests used:
[1] = Solubility of zinc complexes; format: physicochemical
[2] = system: p53 target genes p21, PUMA and GDF15; test: Quantitative PCR of p53 target genes (restoration of wild type transcriptional function); format: cell-based; conditions: for p21, PUMA and GDF15 levels: quantitative PCR
p53R175H cells = test: Potency against p53R175H cells in vitro, compared with the monomer from Zn-1; format: cell-based
Description: (§1) Cell growth inhibition assay using human tumor cell lines with different p53 status (wildtype, null, p53-R175H or other zinc binding deficient mutants) are employed to determine if a test compound functions as a zinc metallochaperone to restore wildtype p53 functions. Five thousand cells per well are cultured in 96-well plate to reach the 50% confluence on the second day when treated with serial dilutions of the compounds. Growth is measured by Calcein AM assay after incubation for 72 hours.

human tumor cell lines = test: Cell growth inhibition assay (Calcein AM); format: cell-based; conditions: for EC50: Calcein AM, incubation for 3 days; for Fold (Zn-1/compound) / Fold (compound/Zn-1): ratio of EC50s
Description: as §1
The cell growth inhibition assay was performed by Calcein AM assay (Trevigen). Five thousand cells per well were cultured in 96-well plate to reach the 50% confluence on the second day when treated with serial dilutions of the compounds. Growth was measured by Calcein AM assay (Trevigen) and Victor Plate reader instrument (PerkinElmer) after incubation for 3 days.

mutant p53 [3] = biological target: T1, mutant p53 (Homo sapiens, UniProt P04637, R175H); test: Cell growth inhibition after mutant p53 knock-down using siRNA; format: cell-based; conditions: mutant p53 knocked down using an siRNA
T1 construct: The p53-R175H cells (e.g. TOV112D) cultured in DMEM+10% FBS are treated with a test compound; endogenous in cells; host or cells: p53-R175H cells (e.g. TOV112D)

COX1(h) = biological target: T2, COX1(h) (Homo sapiens, UniProt P23219); test: CEREP-44 Safety Screen: COX1; format: biochemical; set-up: dose or concentration left out as unconfirmed
T2 construct: Eurofins (Cerep) SafetyScreen44 panel, contract screen P270

COX2(h) = biological target: T3, COX2(h) (Homo sapiens, UniProt P35354); test: CEREP-44 Safety Screen: COX2; format: biochemical; set-up: dose or concentration left out as unconfirmed
T3 construct: Eurofins (Cerep) SafetyScreen44 panel, contract screen P270
T3 sequence (P35354 18-604): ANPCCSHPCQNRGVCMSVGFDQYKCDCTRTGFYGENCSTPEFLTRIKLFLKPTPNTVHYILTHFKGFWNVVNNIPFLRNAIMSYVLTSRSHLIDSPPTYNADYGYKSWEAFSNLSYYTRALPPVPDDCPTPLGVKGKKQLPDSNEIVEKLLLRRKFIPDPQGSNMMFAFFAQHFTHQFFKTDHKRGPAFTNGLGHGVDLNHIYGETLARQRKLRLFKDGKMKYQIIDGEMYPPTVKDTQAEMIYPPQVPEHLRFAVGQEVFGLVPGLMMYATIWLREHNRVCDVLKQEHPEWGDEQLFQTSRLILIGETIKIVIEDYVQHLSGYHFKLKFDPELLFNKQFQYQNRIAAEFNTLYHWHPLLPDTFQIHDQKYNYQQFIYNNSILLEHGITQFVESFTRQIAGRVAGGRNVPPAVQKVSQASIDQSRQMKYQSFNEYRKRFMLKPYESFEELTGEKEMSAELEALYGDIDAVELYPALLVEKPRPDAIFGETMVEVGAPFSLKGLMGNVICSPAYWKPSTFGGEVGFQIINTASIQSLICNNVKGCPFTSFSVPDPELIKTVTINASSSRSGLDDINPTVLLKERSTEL

mutant p53 [4] = biological target: T1, mutant p53; test: Immunofluorescent staining with p53 conformation specific antibodies (PAB240, PAB1620); format: cell-based; conditions: PAB 1620 (wild type specific)
Description: An immunofluorescent staining using p53 conformation specific antibodies is used to determine if a test compound could induce the mutant p53 protein refolding to a wildtype conformation. The p53-R175H cells (e.g. TOV112D) cultured in DMEM+10% FBS are treated with a test compound for 6 hours, then fixed and stained with the antibodies PAB1620 (recognizing WT conformation) and PAB240 (recognizing misfolded/unfolded conformation) respectively.

5-HT2B = biological target: T4, 5-HT2B (Homo sapiens, UniProt P41595); test: CEREP-44 Safety Screen: 5-HT2B; format: binding; set-up: dose or concentration left out as unconfirmed
T4 construct: Eurofins (Cerep) SafetyScreen44 panel, contract screen P270
T4 sequence (P41595 whole entry): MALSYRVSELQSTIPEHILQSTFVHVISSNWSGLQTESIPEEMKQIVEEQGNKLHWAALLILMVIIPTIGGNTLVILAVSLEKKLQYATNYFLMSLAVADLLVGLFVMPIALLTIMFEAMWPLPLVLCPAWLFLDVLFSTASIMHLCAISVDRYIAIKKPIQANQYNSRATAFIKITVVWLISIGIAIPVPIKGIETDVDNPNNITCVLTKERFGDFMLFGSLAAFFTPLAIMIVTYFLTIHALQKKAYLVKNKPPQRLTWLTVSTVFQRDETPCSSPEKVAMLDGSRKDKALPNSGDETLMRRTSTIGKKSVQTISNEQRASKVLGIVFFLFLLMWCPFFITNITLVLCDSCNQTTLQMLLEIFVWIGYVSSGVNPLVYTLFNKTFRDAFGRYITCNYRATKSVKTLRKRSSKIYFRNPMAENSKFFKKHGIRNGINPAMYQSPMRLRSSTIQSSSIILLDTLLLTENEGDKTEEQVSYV

T2 sequence (P23219 24-599): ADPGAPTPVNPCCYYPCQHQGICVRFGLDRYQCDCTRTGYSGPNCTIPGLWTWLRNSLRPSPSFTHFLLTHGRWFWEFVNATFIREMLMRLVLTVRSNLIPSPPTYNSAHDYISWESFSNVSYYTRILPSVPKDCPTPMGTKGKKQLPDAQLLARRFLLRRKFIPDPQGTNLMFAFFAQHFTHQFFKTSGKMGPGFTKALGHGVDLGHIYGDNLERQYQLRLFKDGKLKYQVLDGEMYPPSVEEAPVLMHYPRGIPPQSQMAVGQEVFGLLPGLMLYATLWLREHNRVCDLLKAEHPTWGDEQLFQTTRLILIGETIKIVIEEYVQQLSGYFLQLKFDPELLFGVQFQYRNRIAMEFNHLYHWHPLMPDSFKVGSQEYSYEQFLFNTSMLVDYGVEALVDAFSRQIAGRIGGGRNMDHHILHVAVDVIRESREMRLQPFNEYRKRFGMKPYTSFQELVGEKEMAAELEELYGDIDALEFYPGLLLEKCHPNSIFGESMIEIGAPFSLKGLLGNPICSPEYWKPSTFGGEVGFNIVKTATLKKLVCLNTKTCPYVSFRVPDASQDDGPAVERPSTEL

Molecule | Solubility DMSO 4 mg/ml [1] | Solubility DMSO 10 mg/ml [1] | Solubility EtOH 1 mg/ml [1] | Solubility EtOH 2 mg/ml [1] | Solubility H2O:DMSO 1:1 0.5 mg/mL [1] | More potent than the monomer from Zn-1 (p53R175H cells) [fold] | EC50 (human tumor cell lines) [nM] | Fold (Zn-1/compound) (human tumor cell lines) | Fold (compound/Zn-1) (human tumor cell lines) | also measured
C/C(=N\NC(=S)N1CCC1)c1ccccn1 [ZMC-1, reference compound] | – | – | – | – | – | – | – | – | – | Solubility DMSO (3 mg/ml) ([1]; DMSO 4 mg/ml column, cell annotated (3 mg/ml)): Yes
C/C(=N\NC(=S)N1CCC1)c1ccccn1 [ZN-1, reference compound] | Yes | No | No | No | No | 3 | – | – | – | p21, PUMA and GDF15 levels [2]: markedly induced; EC50 (human tumor cell lines; Homo sapiens, 72 h): 2.69 nM
COc1ccnc(/C(C)=N/NC(=S)N(C)C)c1.COc1ccnc(/C(C)=N/NC(=S)N(C)C)c1.[Zn] [Zn-11, Zn[(E)-2-(1-(4-methoxypyridin-2-yl)ethylidene)-N,N-dimethylhydrazine-1-carbothioamide]2] | Yes | Yes | Partial | – | No at 0.5 | 209 | 0.22 | 12.2 | 0.1 | Qualitative relative solubility in 1:1 DMSO:water ([1]; H2O:DMSO 1:1 at 0.5 mg/mL, compared among Zn-8, Zn-11 and Zn-14): qualitatively more soluble; also recorded: *Qualitatively slightly more soluble compared with Zn-8 and Zn-14
C/C(=N\NC(=S)N(C)C)c1ccc(O[C@H]2CCOC2)cn1.C/C(=N\NC(=S)N(C)C)c1ccc(O[C@H]2CCOC2)cn1.[Zn] [Zn-15, Zn[(S,E)-N,N-dimethyl-2-(1-(5-((tetrahydrofuran-3-yl)oxy)pyridin-2-yl)ethylidene)hydrazine-1-carbothioamide]2] | – | – | – | – | – | – | 7.08 | 2.6 | 0.4 | –
Zn[(E)-2-(1-(4-(2-methoxyethoxy)pyridin-2-yl)ethylidene)-N,N-dimethylhydrazine-1-carbothioamide]2 [ZN-8] | Yes | Yes | YES | Partial | No | 14 | 0.37 | 7.3 | 0.1 | Cell growth inhibition after mutant p53 knock-down (mutant p53 [3]): attenuated by more than a log fold; COX1(h) % Inh. (COX1(h)): 54.8 % Inh.; p21, PUMA and GDF15 levels [2]: markedly induced; Increases of p21, PUMA and GDF15 in p53R175H knock-out cells ([2]; same cell line with mutant p53R175H knocked out using CRISPR): not observed; COX2(h) % Inh. (COX2(h)): 50.7 % Inh.; Wild type conformation change of mutant p53 (mutant p53 [4]): induces a wild type conformation change; 5-HT2B % Inh. (5-HT2B): 58.7 % Inh.
Zn[(E)-N,N-dimethyl-2-(1-(4-(2-morpholinoethoxy)pyridin-2-yl)ethylidene)hydrazine-1-carbothioamide]2 [ZN-9] | – | Yes | – | Yes | – | – | 18.1 | 0.1 | 6.7 | –
Zn[(E)-N,N-dimethyl-2-(1-(4-(2-morpholinoethoxy)pyridin-2-yl)ethylidene)hydrazine-1-carbothioamide]2 bis mesylate salt [ZN-9 Mesylate salt] | – | – | – | – | – | – | – | – | – | Solubility 0.9% Saline ([1]; 0.9% Saline): 5000 to 10000 µg/mL
